Patent publication US7507727B2, “Substituted quinobenzoxazine analogs and methods of using thereof” (Cylene Pharmaceuticals, Inc., priority 2003, dated 2009)

Legend:
[1] = system: c-myc quadruplex relative to pUC 18 plasmid DNA; assay: Quadruplex/duplex competitor assay (selectivity screen); format: binding; details: ratio of the competitor IC50 values; FIG. 3
Method: After cooling down to room temperature, 1 mM KCl and the test compound (various concentrations) were added and the mixture incubated for 15 minutes at room temperature. The primer extension was performed by adding 10 mM KCl and Taq DNA Polymerase (2.5 U/reaction, Promega) and incubating at 70° C. for […]. The reaction was stopped by adding 1 μl of the reaction mixture to 10 μl Hi-Di Formamide mixed and 0.25 μl LIZ120 size standard. Hi-Di Formamide and LIZ120 size standard were purchased from Applied Biosystems. The method is repeated with the addition of various concentrations of competitor nucleic acids at the first step, along with the primer and template sequences. The G-quadruplex binding ligand is added at the concentration previously established to produce a 1:1 ratio of stop-product to full-length product.
Quadruplex/Duplex Competitor Assay. The selectivity of compounds for the target quadruplex sequence relative to duplex DNA may be measured using a competition assay (i.e., “selectivity screen”). […] The degree to which each competitor successfully “soaks up” drug in solution is reflected by the quantitative decrease in synthesis of the stop product. In this manner, the relative binding affinities of drug to both the target quadruplex and duplex DNA are determined. […]

[2] = system: panel of cancer cell-lines; assay: MTS cell survival assay, panel of cancer cell-lines; format: cell-based; details: for IC50: MTS
Method: The antitumor range of action of CX-3543 was tested in vitro using a panel of cancer cell-lines and evaluated using an MTS cell survival assay. Cells were exposed to CX3543 at various concentrations over a four day period, and IC50 values were calculated. Generally, 2,000 to 5,000 cells were seeded in each well of a 96-well plate and incubated overnight. A serial dilution of testing compounds was added to cells and further incubated for 4 days at 37° C., in a 5% CO2 humidified incubator. The survival cell numbers were evaluated by the MTS method as described in the manufacturer's protocol (Promega). […] In particular examples, IC50 values were measured by Alamar Blue.

[3] = system: caspase-3 activation in HCT-116; assay: Caspase-3/7 assay; format: cell-based; details: HCT-116 cells, 24 hr, 1, 3 and 5 uM
Method: The following protocol was followed (24 hr). On Day 1, seed 0.015×10^6 HCT-116 cells/50 ul/well. Incubate o/n in 37° C. CO2 incubator. On Day 2, remove 25 ul of medium from wells. Treat HCT-116 cells with 1, 3, 5 uM CX-3543. Treat positive control group with Staurosporin 0.01, 0.1, 1 uM. Keep six negative control wells treated with medium only (add 25 ul of diluted sample to appropriate wells). Incubate for 24 h at 37° C. in a CO2 incubator. On Day 3, prepare Apo-ONE Homogeneous Caspase-3/7 assay reagent (Promega) at 10 ul reagent/1 ml buffer. Add 50 ul of diluted reagent. Incubate one hour at room temp. Measure fluorescence at 485/520.

Compound: CN1CCCC1CCNC(=O)c1cn2c3c(c(N4CCC(c5cnccn5)C4)c(F)cc3c1=O)Oc1cc3ccccc3cc1-2 (centres unmarked) [CX-3543]
- selectivity for the c-myc quadruplex relative to pUC 18 plasmid DNA [1]: approximately 400 ×
- IC50 ([2]; 96 h, PC3 (Prostate), 4 days): 3200 nM
- IC50 ([2]; Homo sapiens, 786-0, 96 h, 786-O, 4 days): 2100 nM
- IC50 ([2]; Homo sapiens, 96 h, A549, 4 days): 2900 nM
- IC50 ([2]; Homo sapiens, 96 h, HCT-116 (Colorectal), 4 days): 3300 nM
- IC50 ([2]; Homo sapiens, 96 h, HT-29, 4 days): 5500 nM
- IC50 ([2]; Homo sapiens, 96 h, HeLa (cervical), 4 days): 3300 nM
- IC50 ([2]; Homo sapiens, 96 h, HepG2, 4 days): 2500 nM
- IC50 ([2]; Homo sapiens, 96 h, MDA-MB-231 (Breast), 4 days): 2400 nM
- IC50 ([2]; Homo sapiens, 96 h, MDA-MB-468 (Breast), 4 days): 1500 nM
- IC50 ([2]; Homo sapiens, 96 h, Ramos (Burkitt's Lymphoma), 4 days): 300 nM
- IC50 ([2]; Homo sapiens, MIA PaCa-2, 96 h, MiaPaca, 4 days): 2800 nM
- IC50 in MTS assays over a broad range of tumor types ([2]; four day exposure): submicromolar to single digit micromolar
- caspase-3 levels [3]: dose responsive increase
